Read-outs that look alike come from different tables or passages of the source.
Legend:
[1] = molecular target: T1, human GIP receptor (hGIPR) (Homo sapiens, UniProt P48546); assay: [125I]-GIP binding, SPA with membranes of CHO cells expressing hGIPR
T1 construct: expressed in transfected cells; crude membranes
T1 sequence (P48546 22-466): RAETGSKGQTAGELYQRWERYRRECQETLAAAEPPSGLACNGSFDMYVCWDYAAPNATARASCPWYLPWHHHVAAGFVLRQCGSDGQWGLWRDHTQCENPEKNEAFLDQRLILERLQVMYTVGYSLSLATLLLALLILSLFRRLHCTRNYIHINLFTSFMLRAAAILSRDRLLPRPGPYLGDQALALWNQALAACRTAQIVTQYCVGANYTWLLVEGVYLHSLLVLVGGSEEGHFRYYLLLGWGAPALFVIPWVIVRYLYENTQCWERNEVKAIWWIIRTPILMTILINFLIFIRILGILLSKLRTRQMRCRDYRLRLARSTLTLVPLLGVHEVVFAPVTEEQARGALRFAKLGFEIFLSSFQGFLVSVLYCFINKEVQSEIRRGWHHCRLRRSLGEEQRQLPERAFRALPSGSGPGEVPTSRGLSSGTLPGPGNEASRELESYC

[2] = molecular target: T2, hGCGR (Homo sapiens, UniProt P47871); assay: Functional cAMP formation (HTRF) in HEK-293 clonal cells expressing hGCGR, 0.1% bovine casein, without or with 1.0% human serum albumin; assay type: cell-based; settings: cAMP, 37° C.
T2 construct: expressed in transfected cells
T2 sequence (P47871 26-477): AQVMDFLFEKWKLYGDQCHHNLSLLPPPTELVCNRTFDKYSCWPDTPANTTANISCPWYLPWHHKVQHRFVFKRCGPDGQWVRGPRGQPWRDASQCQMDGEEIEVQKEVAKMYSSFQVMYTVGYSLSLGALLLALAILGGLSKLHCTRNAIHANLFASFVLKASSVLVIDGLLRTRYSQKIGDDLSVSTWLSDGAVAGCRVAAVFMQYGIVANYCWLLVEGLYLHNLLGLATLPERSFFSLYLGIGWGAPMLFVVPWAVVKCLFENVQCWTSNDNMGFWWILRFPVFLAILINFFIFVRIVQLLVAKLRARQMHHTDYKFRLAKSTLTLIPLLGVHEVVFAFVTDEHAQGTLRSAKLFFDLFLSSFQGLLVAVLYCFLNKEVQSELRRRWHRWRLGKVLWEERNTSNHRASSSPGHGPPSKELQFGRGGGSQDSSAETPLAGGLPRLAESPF
Summary of the method: (§1)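 Cells were stimulated with peptide for 30 min at 37° C, then intracellular cAMP was measured by competitive HTRF (665/620 nm ratio) and converted to nM using a cAMP standard curve. Relative EC50 and Emax came from four-parameter logistic fits of percent maximal response against peptide concentration.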

[3] = molecular target: hGLP-1R (Homo sapiens, UniProt P43220); assay: Functional cAMP formation (HTRF) in HEK-293 clonal cells expressing hGLP-1R, 0.1% bovine casein, without or with 1.0% human serum albumin; assay type: cell-based; parameters: expressed in transfected cells; settings: for Emax: percent of maximal response to GLP-1(7-36)NH2, arithmetic mean; for EC50: cAMP
hGLP-1R, sequence (P43220 24-463): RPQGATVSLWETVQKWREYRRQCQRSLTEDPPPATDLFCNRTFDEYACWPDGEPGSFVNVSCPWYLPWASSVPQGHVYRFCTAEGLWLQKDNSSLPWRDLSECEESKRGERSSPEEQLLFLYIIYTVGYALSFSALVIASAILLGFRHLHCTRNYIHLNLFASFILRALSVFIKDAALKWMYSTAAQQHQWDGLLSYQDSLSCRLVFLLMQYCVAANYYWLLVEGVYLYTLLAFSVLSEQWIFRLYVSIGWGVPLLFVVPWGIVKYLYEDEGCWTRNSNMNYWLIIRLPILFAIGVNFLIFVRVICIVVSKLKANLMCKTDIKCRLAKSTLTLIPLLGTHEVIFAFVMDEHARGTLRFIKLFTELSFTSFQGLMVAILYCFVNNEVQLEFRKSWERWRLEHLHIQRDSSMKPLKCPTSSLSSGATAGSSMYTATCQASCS
Summary of the method: as §1

[4] = molecular target: T3, hGIPR (Homo sapiens, UniProt P48546); assay: Functional cAMP formation (HTRF) in HEK-293 clonal cells expressing hGIPR, 0.1% bovine casein, without or with 1.0% human serum albumin; assay type: cell-based; settings: for Emax: percent of maximal response to GIP(1-42)NH2; for EC50: cAMP
T3 construct: expressed in transfected cells
T3 sequence (P48546 22-466): T1 sequence (P48546 22-466)
Summary of the method: as §1

[5] = molecular target: T4, human GLP-1 receptor (hGLP-1R) (Homo sapiens, UniProt P43220); assay: [125I]-GLP-1 binding, SPA with membranes of HEK293 cells expressing hGLP-1R
T4 construct: expressed in transfected cells; crude membranes
T4 sequence (P43220 24-463): as above

[6] = human GIPR, geometric mean (SEM, n), read-out: Binding Affinity Ki, nM (SEM, n) hGIPR
[7] = 0.1% bovine casein (no human serum albumin), geometric mean, read-out: hGCGR EC50, nM (SEM, n)
[8] = 0.1% bovine casein and 1.0% human serum albumin, geometric mean (SEM, n), read-out: hGCGR EC50, nM (SEM, n)
[9] = HEK293, cAMP, 37° C., 0.1% bovine casein, read-out: hGLP-1R Emax, % ± SEM
[10] = 37° C., 0.1% bovine casein (no human serum albumin), geometric mean, read-out: hGLP-1R EC50, nM (SEM, n)
[11] = HEK293, cAMP, 37° C., 0.1% bovine casein and 1.0% human serum albumin, read-out: hGIPR Emax, % ± SEM
[12] = 37° C., 0.1% bovine casein (no human serum albumin), geometric mean, read-out: hGIPR EC50, nM (SEM, n)
[13] = human GLP-1R, geometric mean (SEM, n), read-out: Binding Affinity Ki, nM (SEM, n) hGLP-1R
[14] = hGCGR EC50, nM (SEM, n), 0.1% bovine casein (no human serum albumin), geometric mean
[15] = hGCGR EC50, nM (SEM, n), 0.1% bovine casein and 1.0% human serum albumin, geometric mean (SEM, n)
[16] = HEK293, read-out: hGLP-1R Emax, % ± SEM, cAMP, 37° C., 0.1% bovine casein
[17] = hGLP-1R EC50, nM (SEM, n), 37° C., 0.1% bovine casein (no human serum albumin), geometric mean
[18] = hGIPR EC50, nM (SEM, n), 37° C., 0.1% bovine casein (no human serum albumin), geometric mean

Row | Structure (SMILES) | Ki [1, 6] [nM] | EC50 [2, 7] [nM] | EC50 [2, 8] [nM] | Emax [3, 9] [%] | EC50 [3, 10] [nM] | Emax [4, 11] [%] | EC50 [4, 12] [nM] | EC50 ([4]; 37° C., 0.1% bovine casein and 1.0% human serum albumin, geometric mean (SEM, n), read-out: hGIPR EC50, nM (SEM, n)) [nM] | Ki [5, 13] [nM] | Ki [1] [nM] | EC50 [2, 14] [nM] | EC50 [2, 15] [nM] | Emax [3, 16] [%] | EC50 [3, 17] [nM] | EC50 ([3]; hGLP-1R EC50, nM (SEM, n), 37° C., 0.1% bovine casein and 1.0% human serum albumin, geometric mean (SEM, n)) [nM] | Emax ([4]; HEK293, read-out: hGIPR Emax, % ± SEM, cAMP, 37° C., 0.1% bovine casein and 1.0% human serum albumin) [%] | EC50 [4, 18] [nM] | Ki [5] [nM]
1 | CC[C@H](C)[C@H](NC(=O)[C@H](CC(C)C)NC(=O)[C@](C)(Cc1ccc(O)cc1)NC(=O)[C@H](CCCCNC(=O)COCCOCCNC(=O)CCCCCNC(=O)CC[C@H](NC(=O)CCCCCCCCCCCCC(=O)O)C(=O)O)NC(=O)[C@@H](NC(=O)[C@H](Cc1ccccc1)NC(=O)[C@H](CCCN)NC(=O)C(C)(C)NC(=O)[C@H](CCC(N)=O)NC(=O)[C@H](C)NC(=O)[C@H](CCC(N)=O)NC(=O)[C@H](CCCN)NC(=O)[C@H](CC(=O)O)NC(=O)[C@H](CC(C)C)NC(=O)[C@](C)(CC(C)C)NC(=O)[C@@H](NC(=O)C(C)(C)NC(=O)[C@H](Cc1ccncc1)NC(=O)[C@H](CC(=O)O)NC(=O)[C@H](CO)NC(=O)[C@@H](NC(=O)[C@](C)(Cc1ccccc1F)NC(=O)[C@@H](NC(=O)CNC(=O)[C@H](CCC(=O)O)NC(=O)C(C)(C)NC(=O)[C@@H](N)Cc1ccc(O)cc1)[C@@H](C)O)[C@@H](C)O)[C@@H](C)CC)[C@@H](C)CC)C(=O)N[C@@H](CCCCNC(=O)COCCOCCNC(=O)CCCCCNC(=O)CC[C@H](NC(=O)CCCCCCCCCCCCC(=O)O)C(=O)O)C(=O)NCC(=O)NCC(=O)N1CCC[C@H]1C(=O)N[C@@H](CO)C(=O)N[C@@H](CO)C(=O)NCC(=O)N[C@@H](C)C(=O)N1CCC[C@H]1C(=O)N1CCC[C@H]1C(=O)N1CCC[C@H]1C(=O)N[C@@H](CO)C(N)=O [Example 449] | 0.0133 | > 9950 | > 9950 | 112 | 0.16 | 92.1 | 0.0102 | 0.595 | 0.201 | – | – | – | – | – | – | – | – | –
2 | CC[C@H](C)[C@H](NC(=O)[C@H](CC(C)C)NC(=O)[C@](C)(Cc1ccc(O)cc1)NC(=O)[C@H](CCCCNC(=O)COCCOCCNC(=O)CCCCCNC(=O)CC[C@H](NC(=O)CCCCCCCCCOc1ccc(C(=O)O)cc1)C(=O)O)NC(=O)[C@@H](NC(=O)[C@H](Cc1ccccc1)NC(=O)[C@H](CCCN)NC(=O)C(C)(C)NC(=O)[C@H](CCC(N)=O)NC(=O)[C@H](C)NC(=O)[C@H](CCC(N)=O)NC(=O)[C@H](CCCN)NC(=O)[C@H](CC(=O)O)NC(=O)[C@H](CC(C)C)NC(=O)[C@](C)(CC(C)C)NC(=O)[C@@H](NC(=O)C(C)(C)NC(=O)[C@H](Cc1ccncc1)NC(=O)[C@H](CC(=O)O)NC(=O)[C@H](CO)NC(=O)[C@@H](NC(=O)[C@](C)(Cc1ccccc1F)NC(=O)[C@@H](NC(=O)CNC(=O)[C@H](CCC(=O)O)NC(=O)C(C)(C)NC(=O)[C@@H](N)Cc1ccc(O)cc1)[C@@H](C)O)[C@@H](C)O)[C@@H](C)CC)[C@@H](C)CC)C(=O)N[C@@H](CCCCNC(=O)COCCOCCNC(=O)CCCCCNC(=O)CC[C@H](NC(=O)CCCCCCCCCOc1ccc(C(=O)O)cc1)C(=O)O)C(=O)NCC(=O)NCC(=O)N1CCC[C@H]1C(=O)N[C@@H](CO)C(=O)N[C@@H](CO)C(=O)NCC(=O)N[C@@H](C)C(=O)N1CCC[C@H]1C(=O)N1CCC[C@H]1C(=O)N1CCC[C@H]1C(=O)N[C@@H](CO)C(N)=O [Example 453] | – | – | – | – | – | – | – | – | – | 0.013 | > 9950 | > 9950 | 116 | 0.2 | 5.47 | 92 | 0.0139 | 0.123
3 | CC[C@H](C)[C@H](NC(=O)[C@H](CC(C)C)NC(=O)[C@](C)(Cc1ccc(O)cc1)NC(=O)[C@H](CCCCNC(=O)CCOCCOCCOCCNC(=O)CC[C@H](NC(=O)CCCCCCCCCCCCC(=O)O)C(=O)O)NC(=O)[C@@H](NC(=O)[C@H](Cc1ccccc1)NC(=O)[C@H](CCCN)NC(=O)C(C)(C)NC(=O)[C@H](CCC(N)=O)NC(=O)[C@H](C)NC(=O)[C@H](CCC(N)=O)NC(=O)[C@H](CCCN)NC(=O)[C@H](CC(=O)O)NC(=O)[C@H](CC(C)C)NC(=O)[C@](C)(CC(C)C)NC(=O)[C@@H](NC(=O)C(C)(C)NC(=O)[C@H](Cc1ccncc1)NC(=O)[C@H](CC(=O)O)NC(=O)[C@H](CO)NC(=O)[C@@H](NC(=O)[C@](C)(Cc1ccccc1F)NC(=O)[C@@H](NC(=O)CNC(=O)[C@H](CCC(=O)O)NC(=O)C(C)(C)NC(=O)[C@@H](N)Cc1ccc(O)cc1)[C@@H](C)O)[C@@H](C)O)[C@@H](C)CC)[C@@H](C)CC)C(=O)N[C@@H](CCCCNC(=O)CCOCCOCCOCCNC(=O)CC[C@H](NC(=O)CCCCCCCCCCCCC(=O)O)C(=O)O)C(=O)NCC(=O)NCC(=O)N1CCC[C@H]1C(=O)N[C@@H](CO)C(=O)N[C@@H](CO)C(=O)NCC(=O)N[C@@H](C)C(=O)N1CCC[C@H]1C(=O)N1CCC[C@H]1C(=O)N1CCC[C@H]1C(=O)N[C@@H](CO)C(N)=O [Example 458] | 0.0232 | > 9950 | > 9950 | 111 | 0.179 | 93.1 | 0.0121 | – | 0.266 | – | – | – | – | – | – | – | – | –
4 | CC[C@H](C)[C@H](NC(=O)[C@H](CC(C)C)NC(=O)[C@](C)(Cc1ccc(O)cc1)NC(=O)[C@H](CCCCNC(=O)CCOCCOCCOCCNC(=O)CC[C@H](NC(=O)CCCCCCCCCOc1ccc(C(=O)O)cc1)C(=O)O)NC(=O)[C@@H](NC(=O)[C@H](Cc1ccccc1)NC(=O)[C@H](CCCN)NC(=O)C(C)(C)NC(=O)[C@H](CCC(N)=O)NC(=O)[C@H](C)NC(=O)[C@H](CCC(N)=O)NC(=O)[C@H](CCCN)NC(=O)[C@H](CC(=O)O)NC(=O)[C@H](CC(C)C)NC(=O)[C@](C)(CC(C)C)NC(=O)[C@@H](NC(=O)C(C)(C)NC(=O)[C@H](Cc1ccncc1)NC(=O)[C@H](CC(=O)O)NC(=O)[C@H](CO)NC(=O)[C@@H](NC(=O)[C@](C)(Cc1ccccc1F)NC(=O)[C@@H](NC(=O)CNC(=O)[C@H](CCC(=O)O)NC(=O)C(C)(C)NC(=O)[C@@H](N)Cc1ccc(O)cc1)[C@@H](C)O)[C@@H](C)O)[C@@H](C)CC)[C@@H](C)CC)C(=O)N[C@@H](CCCCNC(=O)CCOCCOCCOCCNC(=O)CC[C@H](NC(=O)CCCCCCCCCOc1ccc(C(=O)O)cc1)C(=O)O)C(=O)NCC(=O)NCC(=O)N1CCC[C@H]1C(=O)N[C@@H](CO)C(=O)N[C@@H](CO)C(=O)NCC(=O)N[C@@H](C)C(=O)N1CCC[C@H]1C(=O)N1CCC[C@H]1C(=O)N1CCC[C@H]1C(=O)N[C@@H](CO)C(N)=O [Example 462] | – | – | – | – | – | – | – | – | – | 0.0102 | > 9950 | > 9950 | 113 | 0.189 | – | – | 0.0128 | 0.125
